The record followed here is ChEMBL document CHEMBL3585250, “New pyrazolo[4,3-e][1,2,4]triazine sulfonamides as carbonic anhydrase inhibitors” (Bioorg Med Chem, 2015).

For assay [1], the system named is MCF7. Put plainly: Cytotoxic activity against human MCF7 cells assessed as reduction in cell viability incubated for 24 hrs by MTT assay. Format: functional, cell-based. Conditions: MCF7, 24 h. A general note: Formazan colour is commonly taken as a measure of viable cells.
The test system of assay [2] is MDA-MB-231. The assay is described as follows: Cytotoxic activity against human MDA-MB-231 cells assessed as reduction in cell viability incubated for 24 hrs by MTT assay. Format: functional, cell-based. Conditions: MDA-MB-231, 24 h.
For assay [3], the system named is MCF7. Put plainly: Inhibition of DNA synthesis in human MCF7 cells assessed as reduction in [3H]-thymidine incorporation incubated for 24 hrs by liquid scintillation counting method. The assay is classed as functional, cell-based. (In general: Incorporation of labelled thymidine or its analogues reports DNA synthesis.)
Assay [4] relates to MDA-MB-231. Put plainly: Inhibition of DNA synthesis in human MDA-MB-231 cells assessed as reduction in [3H]-thymidine incorporation incubated for 24 hrs by liquid scintillation counting method. The assay is classed as functional, cell-based.
For the next assay, the target named is Carbonic anhydrase 1 (Homo sapiens, UniProt P00915). The assay is described as follows: Inhibition of human carbonic anhydrase-1 pre-incubated for 15 mins by stopped-flow CO2 hydration assay based Lineweaver-Burk plot method.
In a further assay the target is Carbonic anhydrase 2 (Homo sapiens, UniProt P00918). The assay is described as follows: Inhibition of human carbonic anhydrase-2 pre-incubated for 15 mins by stopped-flow CO2 hydration assay based Lineweaver-Burk plot method.
Another assay addresses Carbonic anhydrase 9 (Homo sapiens, UniProt Q16790). The assay is described as follows: Inhibition of human carbonic anhydrase-9 pre-incubated for 15 mins by stopped-flow CO2 hydration assay based Lineweaver-Burk plot method.
Another assay deals with Carbonic anhydrase 12 (Homo sapiens, UniProt O43570). The assay is described as follows: Inhibition of human carbonic anhydrase-12 pre-incubated for 15 mins by stopped-flow CO2 hydration assay based Lineweaver-Burk plot method.

Each structure is given as a SMILES string.

Sequence of Carbonic anhydrase 12 (O43570 whole entry): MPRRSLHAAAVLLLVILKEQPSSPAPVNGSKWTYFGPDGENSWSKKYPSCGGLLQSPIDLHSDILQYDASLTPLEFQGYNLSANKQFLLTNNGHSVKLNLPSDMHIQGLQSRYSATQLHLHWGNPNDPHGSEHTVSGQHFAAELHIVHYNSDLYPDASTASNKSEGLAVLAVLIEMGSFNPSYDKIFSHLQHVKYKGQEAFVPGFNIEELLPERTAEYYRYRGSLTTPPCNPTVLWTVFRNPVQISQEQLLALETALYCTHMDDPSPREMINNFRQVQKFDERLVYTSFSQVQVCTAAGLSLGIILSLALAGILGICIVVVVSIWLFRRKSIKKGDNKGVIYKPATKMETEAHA
Sequence of Carbonic anhydrase 1 (P00915 whole entry): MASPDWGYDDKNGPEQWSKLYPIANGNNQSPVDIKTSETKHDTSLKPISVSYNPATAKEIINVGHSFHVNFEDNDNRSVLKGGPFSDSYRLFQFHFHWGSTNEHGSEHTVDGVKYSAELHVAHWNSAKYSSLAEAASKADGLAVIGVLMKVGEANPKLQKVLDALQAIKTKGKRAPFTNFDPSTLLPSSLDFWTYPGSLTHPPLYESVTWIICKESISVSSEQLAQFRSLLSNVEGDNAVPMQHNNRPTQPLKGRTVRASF

One may read the IC50 as the concentration that gives 50% inhibition. As a reminder, the Ki is the dissociation constant of the complex between target and ligand, obtained from inhibition or displacement. Turning to `CCOc1ccc(S(=O)(=O)N2CCN(C)CC2)cc1-c1nnc2c(n1)c(C)nn2-c1ccc(S(=O)(=O)N2CCN(C)CC2)cc1`, the concentration for half-maximal inhibition (IC50) with MCF7 [1], in the assay with MDA-MB-231 [2], in the assay with MCF7 [3] and with MDA-MB-231 [4] was more than 200000 nM throughout. Moreover, the Ki at Carbonic anhydrase 1 was 467 nM; at Carbonic anhydrase 2, more than 50000 nM; on Carbonic anhydrase 9 it was 29.6 nM; on Carbonic anhydrase 12, 536 nM.

With `CCOc1ccc(S(N)(=O)=O)cc1-c1nnc2c(n1)c(C)nn2-c1ccc(C)cc1`, the Ki on Carbonic anhydrase 1 was found to be 4490 nM; at Carbonic anhydrase 2 it was 7070 nM; on Carbonic anhydrase 12, 77.5 nM.

With `CCOc1ccc(S(=O)(=O)N2CCN(C)CC2)cc1-c1nnc2c(n1)c(C)nn2-c1ccc(C)cc1`, the Ki was 330 nM at Carbonic anhydrase 1, more than 50000 nM on Carbonic anhydrase 2, 25.4 nM on Carbonic anhydrase 9 and 78.1 nM at Carbonic anhydrase 12.

Regarding `CCOc1ccc(S(=O)(=O)NCCO)cc1-c1nnc2c(n1)c(C)nn2-c1ccc(C)cc1`, the inhibition constant (Ki) at Carbonic anhydrase 1 is 605 nM; on Carbonic anhydrase 2, more than 50000 nM; at Carbonic anhydrase 9 it was 24.5 nM; on Carbonic anhydrase 12, 91.5 nM.

Turning to `CCOc1ccc(S(=O)(=O)NC[C@H](C)O)cc1-c1nnc2c(n1)c(C)nn2-c1ccc(C)cc1`, the concentration for half-maximal inhibition (IC50) in the assay on MCF7 [1], in the assay with MDA-MB-231 [2], in the assay with MCF7 [3] and in the assay on MDA-MB-231 [4] was more than 200000 nM throughout. For the same compound, the Ki on Carbonic anhydrase 1 was 810 nM; on Carbonic anhydrase 2, more than 50000 nM; on Carbonic anhydrase 9 it was 13.8 nM; at Carbonic anhydrase 12, 82.8 nM.

Regarding `CCOc1ccc(S(=O)(=O)NC[C@@H](C)O)cc1-c1nnc2c(n1)c(C)nn2-c1ccc(C)cc1`, the IC50 in the assay on MCF7 [1], in the assay with MDA-MB-231 [2], in the assay on MCF7 [3] and with MDA-MB-231 [4] was more than 200000 nM in each case. The inhibition constant Ki at Carbonic anhydrase 1 was 798 nM; on Carbonic anhydrase 2, more than 50000 nM; at Carbonic anhydrase 9 it was 35.6 nM; at Carbonic anhydrase 12 it was 77.8 nM.

In the case of `CCOc1ccc(S(=O)(=O)N[C@@H](C)CC)cc1-c1nnc2c(n1)c(C)nn2-c1ccc(C)cc1`, the IC50 in the assay on MCF7 [1], in the assay on MDA-MB-231 [2], in the assay on MCF7 [3] and in the assay with MDA-MB-231 [4] was more than 200000 nM each time. For the same compound, the Ki at Carbonic anhydrase 1 is 3440 nM; on Carbonic anhydrase 2, more than 50000 nM; on Carbonic anhydrase 9, 27.7 nM; on Carbonic anhydrase 12, 77.6 nM.

Regarding `CCOc1ccc(S(=O)(=O)N[C@H](C)CC)cc1-c1nnc2c(n1)c(C)nn2-c1ccc(C)cc1`, the IC50 in the assay with MCF7 [1], in the assay with MDA-MB-231 [2], in the assay on MCF7 [3] and in the assay with MDA-MB-231 [4] was more than 200000 nM each time. For the same compound, the Ki at Carbonic anhydrase 1 was 3720 nM; at Carbonic anhydrase 2, more than 50000 nM; on Carbonic anhydrase 9, 26.6 nM; at Carbonic anhydrase 12, 70.3 nM.

In the case of `CCOc1ccc(S(=O)(=O)N2CCN(C)CC2)cc1-c1nnc2c(n1)c(C)nn2-c1ccc(S(=O)(=O)N2CCN(C)CC2)c(Cl)c1`, the Ki at Carbonic anhydrase 1 was 571 nM; at Carbonic anhydrase 2, more than 50000 nM; at Carbonic anhydrase 9 it was 417 nM; at Carbonic anhydrase 12 it was 79.4 nM.

Consider `CCOc1ccc(S(=O)(=O)N2CCN(C)CC2)cc1-c1nnc2c(n1)c(C)nn2-c1ccc(Cl)cc1`, for which the concentration for half-maximal inhibition (IC50) in the assay with MCF7 [1], in the assay with MDA-MB-231 [2], with MCF7 [3] and with MDA-MB-231 [4] was more than 200000 nM throughout. Besides, the inhibition constant (Ki) at Carbonic anhydrase 1 was 854 nM; at Carbonic anhydrase 2, more than 50000 nM; on Carbonic anhydrase 9, 403 nM; on Carbonic anhydrase 12, 81.5 nM.

On to `CCOc1ccc(S(=O)(=O)N2CCNCC2)cc1-c1nnc2c(n1)c(C)nn2-c1ccc(Cl)cc1`, for which the values for the Ki on Carbonic anhydrase 1, on Carbonic anhydrase 2 and on Carbonic anhydrase 12 were 4220 nM, more than 50000 nM and 93.1 nM, respectively.
